Values quoted from earlier work in paper PMC9494641 (ACS Omega, 2022).
pIC50, pKd: −log10 of the molar value. Values belong to the compound of their own block, whether it stands above or below them.

Key:
JAK2 = JAK2 (Homo sapiens, UniProt O60674); conditions: read-out: Kd JAK2
[1] = test system: JAK2 expressing SET-2 cell line
JAK1 = conditions: read-out: IC50 JAK1

JAK2, sequence (O60674 808-1132 limits assumed): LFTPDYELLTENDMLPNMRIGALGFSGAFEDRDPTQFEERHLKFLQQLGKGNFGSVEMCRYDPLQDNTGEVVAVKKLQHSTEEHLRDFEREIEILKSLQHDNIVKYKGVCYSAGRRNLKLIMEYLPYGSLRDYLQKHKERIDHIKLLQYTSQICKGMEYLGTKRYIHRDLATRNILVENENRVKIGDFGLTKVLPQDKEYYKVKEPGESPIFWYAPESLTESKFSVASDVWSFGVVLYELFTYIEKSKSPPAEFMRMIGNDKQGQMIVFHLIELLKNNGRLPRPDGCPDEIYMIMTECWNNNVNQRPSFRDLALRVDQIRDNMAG

pKd (JAK2): 5.18
Structure (SMILES): CCN(CC)CCC(CNc1ccnc2cc(Cl)ccc12)c1ccc(O)cc1 (stereo not drawn) [NSC13626]

pIC50 [1]: > 8.52
Structure (SMILES): Cc1cc(Nc2nc(N[C@@H](C)c3ccc(F)cc3)c(C#N)cc2F)[nH]n1 [AZ960]
